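Each compound was tested at five concentrations against cells in 96-well plates for 48 hours. Abbreviation: GI50, concentration required for 50% inhibition of growth.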 Activity calls are given as the source filed them. Rule as the data show it: active = GI50 up to about 1.1 µM and inactive = higher.
How the values were obtained:
Assay in all cases: NCI tumour cell line growth inhibition, 48 h
SN12C = system: SN12C
TK-10 = system: TK-10
SR = system: SR
UACC-62 = system: UACC-62
A498 = system: A498
LOX IMVI = system: LOX IMVI
SW-620 = system: SW-620
OVCAR-5 = system: OVCAR-5
HT-29 = system: HT-29
Malme-3M = system: Malme-3M
HCC 2998 = system: HCC 2998
M14 = system: M14
OVCAR-4 = system: OVCAR-4
A549 = system: A549
U-251 = system: U-251
HOP-62 = system: HOP-62
OVCAR-3 = system: OVCAR-3
SK-OV-3 = system: SK-OV-3
RXF 393 = system: RXF 393
UO-31 = system: UO-31

Compound | GI50 (SN12C) | GI50 (TK-10) | GI50 (SR) | GI50 (UACC-62) | GI50 (A498) | GI50 (LOX IMVI) | GI50 (SW-620) | GI50 (OVCAR-5) | GI50 (HT-29) | GI50 (Malme-3M) | GI50 (HCC 2998) | GI50 (M14) | GI50 (OVCAR-4) | GI50 (A549) | GI50 (U-251) | GI50 (HOP-62) | GI50 (OVCAR-3) | GI50 (SK-OV-3) | GI50 (RXF 393) | GI50 (UO-31)
CC1=CC(=O)[C@@H](O)[C@]2(C)[C@H]3[C@@]4(O)OC[C@]35[C@H]([C@@H](C)[C@H]4O)[C@@H](OC(=O)C(C)(C)CO)C(=O)O[C@@H]5C[C@@H]12 | 0.191 µM (active) | 0.575 µM (active) | 0.0155 µM (active) | 0.0838 µM (active) | 1.42 µM (inactive) | < 0.012 µM (active) | 0.229 µM (active) | 0.701 µM (active) | 0.207 µM (active) | < 0.01 µM (active) | 0.0476 µM (active) | < 0.0431 µM (active) | 0.122 µM (active) | 2.51 µM (inactive) | 0.0281 µM (active) | 0.0989 µM (active) | < 0.0231 µM (active) | 4.31 µM (inactive) | 0.237 µM (active) | 0.316 µM (active)
CC(=O)O[C@H]1/C(=C/c2ccncc2)C[C@H]2[C@@H]3CC=C4C[C@@H](N5CCCC5)CC[C@]4(C)[C@H]3CC[C@]12C | 17 µM (inactive) | 14.6 µM (inactive) | 5.2 µM (inactive) | 14.2 µM (inactive) | 16.7 µM (inactive) | 2.32 µM (inactive) | 12.2 µM (inactive) | 13.2 µM (inactive) | 1.49 µM (inactive) | 13 µM (inactive) | 12.2 µM (inactive) | 9.35 µM (inactive) | 15.9 µM (inactive) | 11.8 µM (inactive) | 11.5 µM (inactive) | 14.2 µM (inactive) | 21.8 µM (inactive) | 17.9 µM (inactive) | 6.9 µM (inactive) | 4.99 µM (inactive)
N=C(N)CCNC(=O)C1CCC(N)=N1 (stereo not given) | 5.27 µM (inactive) | 22.7 µM (inactive) | 18.5 µM (inactive) | 14 µM (inactive) | 16 µM (inactive) | 15.8 µM (inactive) | 22.1 µM (inactive) | 19.1 µM (inactive) | 5.2 µM (inactive) | 7.5 µM (inactive) | 4.95 µM (inactive) | 24.7 µM (inactive) | 9.48 µM (inactive) | 6.49 µM (inactive) | 7.89 µM (inactive) | 4.38 µM (inactive) | 9.82 µM (inactive) | 9.59 µM (inactive) | 35.1 µM (inactive) | 18.2 µM (inactive)
Cc1nc2c(=O)n(C)c(=O)n(C)c2o1 | > 100 µM (inactive) | > 100 µM (inactive) | > 100 µM (inactive) | > 100 µM (inactive) | > 100 µM (inactive) | > 100 µM (inactive) | > 100 µM (inactive) | > 100 µM (inactive) | > 100 µM (inactive) | > 100 µM (inactive) | > 100 µM (inactive) | > 100 µM (inactive) | > 100 µM (inactive) | > 100 µM (inactive) | > 100 µM (inactive) | > 100 µM (inactive) | > 100 µM (inactive) | > 100 µM (inactive) | > 100 µM (inactive) | > 100 µM (inactive)
C[C@H]1[C@H](C)CC[C@]2(C(=O)OC3OC(CO)C(O)C(O)C3O)CC[C@]3(C)C(=CC[C@@H]4[C@@]5(C)C[C@@H](O)[C@@H]6OC(=O)c7cc(O)c(O)c(O)c7-c7c(cc(O)c(O)c7O)C(=O)OC[C@@]6(CO)[C@@H]5CC[C@]43C)[C@H]12 (stereo not given in full) | 59.7 µM (inactive) | > 100 µM (inactive) | 38.1 µM (inactive) | > 87.7 µM (inactive) | > 100 µM (inactive) | 17.8 µM (inactive) | 28.6 µM (inactive) | > 75.3 µM (inactive) | 25.4 µM (inactive) | > 95.5 µM (inactive) | > 100 µM (inactive) | > 100 µM (inactive) | 23.9 µM (inactive) | > 100 µM (inactive) | 60.4 µM (inactive) | > 100 µM (inactive) | > 46.1 µM (inactive) | 98.6 µM (inactive) | > 100 µM (inactive) | 43.1 µM (inactive)
O=C(CC(O)(C(F)(F)F)C(F)(F)F)c1cc(CC(=O)C(O)(C(F)(F)F)C(F)(F)F)cc(CC(=O)C(O)(C(F)(F)F)C(F)(F)F)c1 | 1.41 µM (inactive) | 2.4 µM (inactive) | 6.78 µM (inactive) | 1.11 µM (active) | 1.88 µM (inactive) | 1.14 µM (inactive) | 2.06 µM (inactive) | 3.01 µM (inactive) | 1.4 µM (inactive) | 2.01 µM (inactive) | 1.54 µM (inactive) | 2.58 µM (inactive) | 1.77 µM (inactive) | 1.84 µM (inactive) | 1.54 µM (inactive) | 1.46 µM (inactive) | 0.454 µM (active) | 2.14 µM (inactive) | 1.47 µM (inactive) | 1.25 µM (inactive)
COC(=O)/C=C1/OC(c2ccc(Br)cc2)=C(Br)C1=O | 6.92 µM (inactive) | 6.59 µM (inactive) | 0.179 µM (active) | 7.05 µM (inactive) | 16.6 µM (inactive) | 3.84 µM (inactive) | 2.6 µM (inactive) | 6.34 µM (inactive) | 4.29 µM (inactive) | 7.94 µM (inactive) | 7.66 µM (inactive) | 4.93 µM (inactive) | 5.16 µM (inactive) | 16 µM (inactive) | 2.57 µM (inactive) | 7.57 µM (inactive) | 4.35 µM (inactive) | 19.9 µM (inactive) | 4.94 µM (inactive) | 11.7 µM (inactive)
